The structures appear in SMILES notation. Read-outs that look alike come from different tables or passages of the source. A value given as a limit tells only on which side of the number the result lay.

In one test the target is T1, BTK (Homo sapiens, UniProt Q06187).
T1 construct: purchased Signalchem B10-10H
Briefly: Inhibitory activity against BTK, ADP-Glo Kinase system (Promega). In kind it is biochemical. Summed up: (§1)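 IC50 values were fitted from kinase reactions run for 1 h at 30°C with either 1 mM ATP or ATP at Km (10 µM for BTK, 25 µM for ITK). Reactions used 0.2 µg/µl poly(Glu4,Tyr1), recombinant human enzyme (BTK 10 ng, ITK 4 ng per reaction) in Tris pH 7.5 Mn/Mg buffer with 1% DMSO. ADP formed was read by ADP-Glo luminescence.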
(In ADP-Glo the light output rises with the ADP produced.)

The next test concerns the target T2, ITK (Homo sapiens, UniProt Q08881).
T2 construct: purchased Signalchem I13-11G-10
T2 sequence (Q08881 1-620): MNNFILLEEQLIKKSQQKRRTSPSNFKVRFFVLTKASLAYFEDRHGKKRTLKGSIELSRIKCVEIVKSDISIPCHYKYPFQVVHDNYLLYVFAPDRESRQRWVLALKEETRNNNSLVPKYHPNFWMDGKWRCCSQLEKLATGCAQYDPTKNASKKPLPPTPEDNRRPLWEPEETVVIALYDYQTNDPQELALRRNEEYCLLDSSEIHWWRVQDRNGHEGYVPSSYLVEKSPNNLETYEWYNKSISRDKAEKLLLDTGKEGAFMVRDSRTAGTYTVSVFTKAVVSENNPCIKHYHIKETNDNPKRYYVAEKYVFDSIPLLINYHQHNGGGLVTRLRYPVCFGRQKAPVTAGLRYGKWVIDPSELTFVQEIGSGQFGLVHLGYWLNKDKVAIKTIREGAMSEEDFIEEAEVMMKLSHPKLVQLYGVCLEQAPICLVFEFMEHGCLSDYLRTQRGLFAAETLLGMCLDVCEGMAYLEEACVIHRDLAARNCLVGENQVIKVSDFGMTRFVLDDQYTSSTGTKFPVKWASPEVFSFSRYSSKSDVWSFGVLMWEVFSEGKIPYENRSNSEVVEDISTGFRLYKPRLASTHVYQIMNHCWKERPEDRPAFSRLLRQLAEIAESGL
Briefly: Inhibitory activity against ITK, ADP-Glo Kinase system (Promega). The format is biochemical. Summed up:
as §1

The mark [1] stands for this setting: 1mM ATP, read-out: BTK IC50(nM) 1mM ATP.
Setting [2] is: 1mM ATP, read-out: ITK IC50(nM) 1mM ATP.
Where [3] appears, read: Km ATP (BTK: 10 uM), read-out: BTK IC50(nM) Km ATP.
[4] abbreviates: Km ATP (ITK: 25uM), read-out: ITK IC50(nM) Km ATP.

T1 sequence (Q06187 whole entry): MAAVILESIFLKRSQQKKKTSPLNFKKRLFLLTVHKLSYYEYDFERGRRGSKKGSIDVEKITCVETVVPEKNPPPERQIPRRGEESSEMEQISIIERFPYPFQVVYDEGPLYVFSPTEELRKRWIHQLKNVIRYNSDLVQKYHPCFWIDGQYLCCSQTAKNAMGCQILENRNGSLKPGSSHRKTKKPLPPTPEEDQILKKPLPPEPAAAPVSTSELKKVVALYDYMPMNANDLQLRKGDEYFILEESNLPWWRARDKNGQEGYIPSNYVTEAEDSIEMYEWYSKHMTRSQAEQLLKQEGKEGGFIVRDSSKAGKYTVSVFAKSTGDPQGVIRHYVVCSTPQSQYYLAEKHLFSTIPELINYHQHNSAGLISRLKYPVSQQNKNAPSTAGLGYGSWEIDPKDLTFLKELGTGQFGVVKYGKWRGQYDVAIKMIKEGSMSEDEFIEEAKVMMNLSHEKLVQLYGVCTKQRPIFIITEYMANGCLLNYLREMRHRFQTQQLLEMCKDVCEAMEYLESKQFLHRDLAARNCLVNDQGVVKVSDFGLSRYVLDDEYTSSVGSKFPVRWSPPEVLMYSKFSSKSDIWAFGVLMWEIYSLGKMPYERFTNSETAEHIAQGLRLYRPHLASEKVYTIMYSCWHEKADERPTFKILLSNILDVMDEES

As usually defined, the IC50 is the midpoint of a concentration-inhibition curve. Take `C=CC(=O)N1CC[C@@H](Oc2nc(Nc3ncc(C)s3)cc3c2ccn3C2CCCC2)C1` [Example 143, (R)-1-(3-((1-cyclopentyl-6-((5-methylthiazol-2-yl)amino)-1H-pyrrolo[3,2-c]pyridin-4-yl)oxy)pyrrolidin-1-yl)prop-2-en-1-one]: the IC50 at BTK (setting [1]) and at ITK (setting [2]) was greater than 500 nM in each case.

As for `C=CC(=O)Nc1cc(-c2nc(Nc3ncc(C)s3)cc3c2ccn3CC2CC2)ccc1F` [Example 64, N-(5-(1-(cyclopropylmethyl)-6-((5-methylthiazol-2-yl)amino)-1H-pyrrolo[3,2-c]pyridin-4-yl)-2-fluorophenyl)acrylamide], the IC50 at BTK (setting [3]) and on ITK (setting [4]) was no more than 20 nM throughout.

Turning to `C=CC(=O)N1CCC2(CC(Oc3nc(Nc4ncc(C)s4)cc4c3ccn4CC(C)C)C2)C1` (stereo not shown) [Example 202, 1-(2-((1-isobutyl-6-((5-methylthiazol-2-yl)amino)-1H-pyrrolo[3,2-c]pyridin-4-yl)oxy)-6-azaspiro[3.4]octan-6-yl)prop-2-en-1-one], the IC50 on BTK (setting [1]) and on ITK (setting [2]) was 100 to 500 nM throughout.

As for `C=CC(=O)N1CC[C@H](Oc2nc(Nc3ncc(C)s3)cc3c2ccn3CC(C)CC)C1` (stereo partly drawn) [Example 123, 1-((3S)-3-((1-(2-methylbutyl)-6-((5-methylthiazol-2-yl)amino)-1H-pyrrolo[3,2-c]pyridin-4-yl)oxy)pyrrolidin-1-yl)prop-2-en-1-one], the IC50 at BTK (setting [3]) and on ITK (setting [4]) was no more than 20 nM in each case.

In the case of `C=CC(=O)N1C[C@H](F)[C@H](Oc2nc(Nc3ncc(C)s3)cc3c2ccn3CC2CC2)C1` [Example 107, 1-((3R,4S)-3-((1-(cyclopropylmethyl)-6-((5-methylthiazol-2-yl)amino)-1H-pyrrolo[3,2-c]pyridin-4-yl)oxy)-4-fluoropyrrolidin-1-yl)prop-2-en-1-one], the IC50 on BTK (setting [1]) and at ITK (setting [2]) was no more than 20 nM each time.

`C=CC(=O)N1CCC[C@H](Oc2nc(Nc3ncc(C)s3)cc3c2ccn3CCOC)C1` [Example 148, (S)-1-(3-((1-(2-methoxyethyl)-6-((5-methylthiazol-2-yl)amino)-1H-pyrrolo[3,2-c]pyridin-4-yl)oxy)piperidin-1-yl)prop-2-en-1-one]: the IC50 at BTK (setting [1]) and on ITK (setting [2]) was no more than 20 nM throughout.

Take `C=CC(=O)N1CC[C@H](Oc2nc(Nc3ncc(C)s3)cc3c2ccn3C2CCCC2)C1` [Example 99, (S)-1-(3-((1-cyclopentyl-6-((5-methylthiazol-2-yl)amino)-1H-pyrrolo[3,2-c]pyridin-4-yl)oxy)pyrrolidin-1-yl)prop-2-en-1-one]: the IC50 at BTK (setting [1]) and on ITK (setting [2]) was no more than 20 nM each time.

With `C=CC(=O)N1C2C=C(c3nc(Nc4ncc(C)s4)cc4c3ccn4CC(F)F)CC1CC2` (stereo not shown) [Example 34, 1-(3-(1-(2,2-difluoroethyl)-6-((5-methylthiazol-2-yl)amino)-1H-pyrrolo[3,2-c]pyridin-4-yl)-8-azabicyclo[3.2.1]oct-2-en-8-yl)prop-2-en-1-one], the IC50 at BTK (setting [1]) was no more than 20 nM; on BTK (setting [3]), no more than 20 nM; on ITK (setting [2]), 20 to 100 nM; at ITK (setting [4]), no more than 20 nM.

For `C=CC(=O)N1C2C=C(c3nc(Nc4ncc(C)s4)cc4c3ccn4C(C)C)CC1COC2` (stereo not shown) [Example 27, 1-(7-(1-isopropyl-6-((5-methylthiazol-2-yl)amino)-1H-pyrrolo[3,2-c]pyridin-4-yl)-3-oxa-9-azabicyclo[3.3.1]non-6-en-9-yl)prop-2-en-1-one], the IC50 on BTK (setting [3]) and at ITK (setting [4]) was no more than 20 nM throughout.

As for `C=CC(=O)Nc1c(F)ccc(-c2nc(Nc3ncc(C)s3)cc3c2ccn3C)c1F` [Example 57, N-(2,6-difluoro-3-(1-methyl-6-((5-methylthiazol-2-yl)amino)-1H-pyrrolo[3,2-c]pyridin-4-yl)phenyl)acrylamide], the IC50 at BTK (setting [3]) and at ITK (setting [4]) was no more than 20 nM throughout.

Turning to `C=CC(=O)N1C[C@@H](F)[C@H](Oc2nc(Nc3ncc(C)s3)cc3c2ccn3CC)C1` [Example 154, 1-((3R,4R)-3-((1-ethyl-6-((5-methylthiazol-2-yl)amino)-1H-pyrrolo[3,2-c]pyridin-4-yl)oxy)-4-fluoropyrrolidin-1-yl)prop-2-en-1-one], the IC50 on BTK (setting [1]) and on ITK (setting [2]) was no more than 20 nM in each case.

As for `C=CC(=O)N1CCC[C@H](Oc2nc(Nc3ncc(C)s3)cc3c2ccn3CC(C)CC)C1` (stereo partly drawn) [Example 172, 1-((3S)-3-((1-(2-methylbutyl)-6-((5-methylthiazol-2-yl)amino)-1H-pyrrolo[3,2-c]pyridin-4-yl)oxy)piperidin-1-yl)prop-2-en-1-one], the IC50 on BTK (setting [1]) was no more than 20 nM; at ITK (setting [2]), 20 to 100 nM.

`C=CC(=O)N1C[C@@H](Oc2nc(Nc3ncc(C)s3)cc3c2ccn3CC(F)(F)F)C[C@H]1C` [Example 212, 1-((2R,4S)-2-methyl-4-((6-((5-methylthiazol-2-yl)amino)-1-(2,2,2-trifluoroethyl)-1H-pyrrolo[3,2-c]pyridin-4-yl)oxy)pyrrolidin-1-yl)prop-2-en-1-one]: the IC50 at BTK (setting [1]) and at ITK (setting [2]) was no more than 20 nM each time.

For `C=CC(=O)N1CCC[C@H](COc2nc(Nc3ncc(C)s3)cc3c2ccn3CC(C)C)C1` [Example 215, (S)-1-(3-(((1-isobutyl-6-((5-methylthiazol-2-yl)amino)-1H-pyrrolo[3,2-c]pyridin-4-yl)oxy)methyl)piperidin-1-yl)prop-2-en-1-one], the concentration for half-maximal inhibition (IC50) was no more than 20 nM on BTK (setting [1]) and 100 to 500 nM on ITK (setting [2]).

As to `C=CC(=O)N1CC=C(c2nc(Nc3ncc(C)s3)cc3c2ccn3C)CC1` [Example 1, 1-(4-(1-methyl-6-((5-methylthiazol-2-yl)amino)-1H-pyrrolo[3,2-c]pyridin-4-yl)-3,6-dihydropyridin-1(2H)-yl)prop-2-en-1-one], the IC50 at BTK (setting [3]) and at ITK (setting [4]) was no more than 20 nM in each case.

`C=CC(=O)Nc1cc(-c2nc(Nc3ncc(C)s3)cc3c2ccn3CC(F)F)ccc1C` [Example 74, N-(5-(1-(2,2-difluoroethyl)-6-((5-methylthiazol-2-yl)amino)-1H-pyrrolo[3,2-c]pyridin-4-yl)-2-methylphenyl)acrylamide]: the IC50 on BTK (setting [3]) and at ITK (setting [4]) was no more than 20 nM throughout.

For `C=CC(=O)N1C[C@@H](F)[C@H](Oc2nc(Nc3ncc(C)s3)cc3c2ccn3CC(C)C)C1` [Example 106, 1-((3R,4R)-3-fluoro-4-((1-isobutyl-6-((5-methylthiazol-2-yl)amino)-1H-pyrrolo[3,2-c]pyridin-4-yl)oxy)pyrrolidin-1-yl)prop-2-en-1-one], the IC50 at BTK (setting [1]) and on ITK (setting [2]) was no more than 20 nM each time.

As to `C=CC(=O)N1CC[C@H](Oc2nc(Nc3ncc(C)s3)cc3c2ccn3CCOC)C1` [Example 127, (S)-1-(3-((1-(2-methoxyethyl)-6-((5-methylthiazol-2-yl)amino)-1H-pyrrolo[3,2-c]pyridin-4-yl)oxy)pyrrolidin-1-yl)prop-2-en-1-one], the IC50 on BTK (setting [1]) and on ITK (setting [2]) was no more than 20 nM throughout.

In the case of `C=CC(=O)N1CCC2(CCC(Oc3nc(Nc4ncc(C)s4)cc4c3ccn4CC(C)C)C2)C1` (stereo not shown) [Example 204, 1-(7-((1-isobutyl-6-((5-methylthiazol-2-yl)amino)-1H-pyrrolo[3,2-c]pyridin-4-yl)oxy)-2-azaspiro[4.4]nonan-2-yl)prop-2-en-1-one], the IC50 on BTK (setting [1]) and at ITK (setting [2]) was greater than 500 nM in each case.

For the origin of these results see EP4707277A1, “NOVEL HETEROCYCLIC AMINE DERIVATIVES AND PHARMACEUTICAL COMPOSITION COMPRISING SAME” (Daewoong Pharmaceutical Co., Ltd., priority 2023, dated 2024).
